We go through 19 molecules from patent US7709482B2, “Polycyclic heteroaryl substituted triazoles useful as Axl inhibitors” (Rigel Pharmaceuticals, Inc., priority 2006, dated 2010).

This assay concerns the target T1, Axl (Homo sapiens, UniProt P30530).
T1 construct: endogenous in cells; host or cells: HeLa cells
T1 sequence (P30530 26-894): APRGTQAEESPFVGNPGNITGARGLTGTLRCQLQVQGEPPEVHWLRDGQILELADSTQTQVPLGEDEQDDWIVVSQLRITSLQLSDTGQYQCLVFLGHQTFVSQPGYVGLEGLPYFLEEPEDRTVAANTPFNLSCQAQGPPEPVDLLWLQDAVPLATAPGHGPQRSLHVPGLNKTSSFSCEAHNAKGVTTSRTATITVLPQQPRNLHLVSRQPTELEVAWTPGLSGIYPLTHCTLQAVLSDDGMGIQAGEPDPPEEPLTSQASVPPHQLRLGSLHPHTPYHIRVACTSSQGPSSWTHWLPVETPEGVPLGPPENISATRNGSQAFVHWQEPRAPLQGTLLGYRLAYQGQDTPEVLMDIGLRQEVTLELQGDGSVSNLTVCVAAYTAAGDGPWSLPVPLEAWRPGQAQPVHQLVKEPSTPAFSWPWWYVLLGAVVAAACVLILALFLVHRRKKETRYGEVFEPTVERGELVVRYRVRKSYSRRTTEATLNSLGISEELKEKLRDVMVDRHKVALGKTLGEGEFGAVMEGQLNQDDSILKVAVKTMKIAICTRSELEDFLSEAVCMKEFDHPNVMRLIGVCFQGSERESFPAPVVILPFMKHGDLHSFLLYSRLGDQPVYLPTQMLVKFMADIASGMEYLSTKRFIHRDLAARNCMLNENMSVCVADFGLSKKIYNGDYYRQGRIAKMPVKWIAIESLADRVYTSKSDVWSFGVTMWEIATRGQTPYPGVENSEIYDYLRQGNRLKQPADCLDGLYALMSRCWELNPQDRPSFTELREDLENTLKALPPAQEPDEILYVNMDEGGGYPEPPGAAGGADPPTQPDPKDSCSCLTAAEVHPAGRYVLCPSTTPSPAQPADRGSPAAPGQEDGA
Nature of the assay: Phospho-Akt In-Cell Western Assay (inhibition of Axl activity after Axl-antibody cross-linking). It counts as cell-based. The conditions noted are these: read-out: IC50. In short, it runs like this: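 Phospho-Akt was detected in formaldehyde-fixed cells by in-cell immunostaining with HRP chemiluminescence. Before fixation, HeLa cells kept 24 h in low-serum medium containing 500 ng/mL Axl/Fc received compound for 1 h at 37 °C, followed by 5-min Axl activation through antibody clustering.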

The mark [1] stands for this setting: Hela cells, phospho-Akt chemiluminescence normalized to relative cell number, compounds of formula (Ia), Table 1.
Where [2] appears, read: Hela cells, phospho-Akt chemiluminescence normalized to relative cell number, compounds of formula (Ib), Table 2.
[3] abbreviates: inhibition of Axl activity, Table 1, compounds of formula (Ia).

The structures appear in SMILES notation. pIC50: −log10 of the molar value. Where two headings read alike, the source gives them in different places.

By pIC50 is commonly meant the negative decadic logarithm of the IC50, by convention in mol/L. Consider `CN1CCN(C2CCN(c3ccc(Nc4nc(N)n(-c5cc6c(nn5)-c5ccccc5CCC6)n4)cn3)CC2)CC1` [Compound 30, 1-(6,7-dihydro-5H-benzo[6,7]cyclohepta[1,2-c]pyridazin-3-yl)-N^3-(6-(4-(4-methylpiperazin-1-yl)piperidin-1-yl)pyridine-3-yl)-1H-1,2,4-triazole-3,5-diamine], for which the pIC50 under setting [1] is more than 6.00. Still for that read-out and setting: in the case of `Nc1nc(Nc2ccc(N3CCN(C4CCCCC4)CC3)c(F)c2)nn1-c1ncc2c(n1)-c1ccccc1CCC2` [Compound 45, 1-(6,7-dihydro-5H-benzo[6,7]cyclohepta[1,2-d]pyrimidin-2-yl)-N^3-(3-fluoro-4-(4-cyclohexylpiperazinyl)phenyl)-1H-1,2,4-triazole-3,5-diamine] it was more than 6.00. On to `CC1CN(c2ccc(Nc3nc(N)nn3-c3cc4c(nn3)-c3ccccc3CCC4)cc2)CC(C)N1` (stereo not shown) [Compound 160, 1-(6,7-dihydro-5H-benzo[6,7]cyclohepta[1,2-c]pyridazin-3-yl)-N^5-(4-(3,5-dimethylpiperazin-1-yl)phenyl)-1H-1,2,4-triazole-3,5-diamine], for which, under setting [2], the pIC50 is more than 6.00.

For `Nc1nc(Nc2ccc(CN3CCC(N4CCCC4)CC3)cc2)n(-c2cc3c(nn2)-c2ccccc2CCC3)n1` [Compound 165, 1-(6,7-dihydro-5H-benzo[6,7]cyclohepta[1,2-c]pyridazin-3-yl)-N^5-(4-((4-pyrrolidin-1-ylpiperidinyl)methyl)phenyl)-1H-1,2,4-triazole-3,5-diamine], the pIC50 under setting [2] is more than 6.00. Same read-out and setting: in the case of `Nc1nc(Nc2ccc(N3CC(N4CCCC4)C3)c(F)c2)n(-c2cc3c(nn2)-c2ccccc2CCC3)n1` [Compound 170, 1-(6,7-dihydro-5H-benzo[6,7]cyclohepta[1,2-c]pyridazin-3-yl)-N^5-(3-fluoro-4-(3-pyrrolidin-1-ylazetidinyl)phenyl)-1H-1,2,4-triazole-3,5-diamine] it was 5.00 to 6.00. As for `Nc1nc(Nc2cnc(N3CCC(CN4CCCCC4)CC3)nc2)nn1-c1cc2c(nn1)-c1ccccc1CCC2` [Compound 148, 1-(6,7-dihydro-5H-benzo[6,7]cyclohepta[1,2-c]pyridazin-3-yl)-N^3-(2-(4-(piperidin-1-ylmethyl)piperidin-1-yl)pyrimidin-5-yl)-1H-1,2,4-triazole-3,5-diamine], the pIC50 under setting [3] was 5.00 to 6.00.

As to `Nc1nc(Nc2ccc(N3CCC(N4CCCC4)CC3)c(F)c2)nn1-c1cc2c(nn1)-c1ccc(Cl)cc1CCC2` [Compound 143, 1-(6,7-dihydro-9-chloro-5H-benzo[6,7]cyclohepta[1,2-c]pyridazin-3-yl)-N^3-(3-fluoro-4-(4-pyrrolidin-1-ylpiperidin-1-yl)phenyl)-1H-1,2,4-triazole-3,5-diamine], under setting [3], the pIC50 is more than 6.00. Take `Nc1nc(Nc2cnc3c(c2)CC(N2CCCC2)CC3)nn1-c1cc2c(nn1)-c1ccccc1CCC2` (stereo not shown) [Compound 189, 1-(6,7-dihydro-5H-benzo[6,7]cyclohepta[1,2-c]pyridazin-3-yl)-N^3-(6-(pyrrolidin-1-yl)-5,6,7,8-tetrahydroquinolin-3-yl)-1H-1,2,4-triazole-3,5-diamine]: the pIC50 under setting [3] was more than 6.00. Same read-out and setting: in the case of `Nc1nc(Nc2ccc3c(c2)CN(C2CCCC2)CC3)nn1-c1cc2c(nn1)-c1ccccc1CCC2` [Compound 153, 1-(6,7-dihydro-5H-benzo[6,7]cyclohepta[1,2-c]pyridazin-3-yl)-N^3-(2-cyclopentyl-1,2,3,4-tetrahydroisoquinolin-7-yl)-1H-1,2,4-triazole-3,5-diamine] it was more than 6.00. In the case of `CN(C)CCN1CCOc2cc(Nc3nc(N)n(-c4cc5c(nn4)-c4ccccc4OCC5)n3)ccc21` [Compound 122, 1-(6,7-dihydro-5H-benzo[2,3]oxepino[4,5-c]pyridazin-3-yl)-N^3-(4-(2-dimethylaminoethyl)-(3,4-dihydro-2H-benzo[b][1,4]oxazin-7-yl))-1H-1,2,4-triazole-3,5-diamine], the pIC50 under setting [1] is more than 6.00. On to `CN1CCN(C2CCN(c3ccc(Nc4nc(N)n(-c5cc6c(nn5)CCCc5ccccc5-6)n4)cc3F)CC2)CC1` [Compound 85, 1-(6,7-dihydro-5H-benzo[6,7]cyclohepta[4,5-c]pyridazin-2-yl)-N^3-(3-fluoro-4-(4-(N-methylpiperazin-1-yl)piperidin-1-yl)phenyl)-1H-1,2,4-triazole-3,5-diamine], for which, under setting [1], the pIC50 is more than 6.00.

Take `CN(C)Cc1nc2cc(Nc3nc(N)n(-c4cc5c(nn4)-c4ccccc4CCC5)n3)ccc2[nH]1` [Compound 13, 1-(6,7-dihydro-5H-benzo[6,7]cyclohepta[1,2-c]pyridazin-3-yl)-N^3-(2-((dimethylamino)methyl)-1H-benzo[d]imidazol-5-yl)-1H-1,2,4-triazole-3,5-diamine]: the pIC50 under setting [1] was 5.00 to 6.00.

Regarding `Cc1cc(Nc2nc(N)n(-c3cc4c(nn3)-c3ccccc3CCC4)n2)ccc1N1CCC(N2CCN(C)CC2)CC1` [Compound 114, 1-(6,7-dihydro-5H-benzo[6,7]cyclohepta[1,2-c]pyridazin-3-yl)-N^3-(3-methyl-4-(4-(N-methylpiperazin-4-yl)piperidin-1-yl)phenyl)-1H-1,2,4-triazole-3,5-diamine], the pIC50 under setting [1] is more than 6.00.

On to `Nc1nc(Nc2ccc(C=CCN3CCN(C4CCCC4)CC3)cc2)nn1-c1cc2c(nn1)-c1ccccc1CCC2` [Compound 206, 1-(6,7-dihydro-5H-benzo[6,7]cyclohepta[1,2-c]pyridazin-3-yl)-N^3-(4-(4-cyclopentylpiperazin-1-ylprop-1-enyl)phenyl)-1H-1,2,4-triazole-3,5-diamine], for which the pIC50 under setting [3] is more than 6.00. On to `Nc1nc(Nc2ccc(C=CCN3CCC(N4CCCCC4)CC3)cc2)nn1-c1cc2c(nn1)-c1ccccc1CCC2` [Compound 197, 1-(6,7-dihydro-5H-benzo[6,7]cyclohepta[1,2-c]pyridazin-3-yl)-N^3-(4-(4-(piperidin-1-yl)piperidin-1-ylprop-1-enyl)phenyl)-1H-1,2,4-triazole-3,5-diamine], for which, under setting [3], the pIC50 was 5.00 to 6.00. `CN1CCN(C2CCN(c3ccc(Nc4nc(N)n(-c5cc6c(nn5)-c5ccccc5CCC6)n4)cc3F)CC2)CC1` [Compound 58, 1-(6,7-dihydro-5H-benzo[6,7]cyclohepta[1,2-c]pyridazin-3-yl)-N^3-(3-fluoro-4-(4-(4-methylpiperazin-1-yl)piperidin-1-yl)phenyl)-1H-1,2,4-triazole-3,5-diamine]: the pIC50 under setting [1] was more than 6.00. Regarding `Nc1nc(Nc2ccc(N3CCC(N4CCCC4)CC3)c(F)c2)nn1-c1cc2c(nn1)-c1ccccc1CCC2` [Compound 177, 1-(6,7-dihydro-5H-benzo[6,7]cyclohepta[1,2-c]pyridazin-3-yl)-N^3-(3-fluoro-4-(4-pyrrolidin-1-ylpiperidin-1-yl)phenyl)-1H-1,2,4-triazole-3,5-diamine], under setting [3], the pIC50 was more than 6.00. `Cc1cc(Nc2nc(N)nn2-c2cc3c(nn2)-c2ccccc2CCC3)ccc1N1CCC(N2CCN(C)CC2)CC1` [Compound 171, 1-(6,7-dihydro-5H-benzo[6,7]cyclohepta[1,2-c]pyridazin-3-yl)-N^5-(3-methyl-4-(4-(N-methylpiperazin-4-yl)piperidin-1-yl)phenyl)-1H-1,2,4-triazole-3,5-diamine]: the pIC50 under setting [2] is less than 4.70. For the molecule `Nc1nc(Nc2ccc(I)nc2)nn1-c1cc2c(nn1)-c1ccccc1CCC2` [Compound 92, 1-(6,7-dihydro-5H-benzo[6,7]cyclohepta[1,2-c]pyridazin-3-yl)-N^3-(6-iodopyridin-3-yl)-1H-1,2,4-triazole-3,5-diamine], the pIC50 under setting [1] was less than 4.70.
